Data on 2 molecules can be found in patent US20200158737A1, “METHODS OF MEASURING UBIQUITIN-LIKE MODIFICATIONS” (Regents of the University of Minnesota, priority 2018, published 2020).

The target in test [1] is T1, bovine serum albumin (BSA) (Bos taurus, UniProt P02769).
T1 construct: purchased VWR
Description: Ninhydrin test with BSA standard to evaluate AcGG-NHS labeling efficiency. How it is done: To test the amine labeling efficiency of AcGG-NHS, three groups of samples were prepared—Blank: 100 μL of 9 M urea/1×PBS, Control: 0.1 mg BSA (5 μL of 20 mg/mL BSA) and 95 μL of 9 M urea/1×PBS, Test: 0.1 mg BSA (5 μL of 20 mg/mL BSA) and 95 μL of 9 M urea/1×PBS. First, samples in each groups were reduced with a final concentration of 5 mM TCEP and alkylated with a final concentration of 5 mM iodoacetamide at room temperature with shaking in dark for 30 min. Then, samples in the Test group were derivatized with AcGG-NHS following the procedure described below. Each group was followed by a reaction with ⅕ the volume of Ninhydrin reagent solution (0.35 g ninhydrin in 100 mL EtOH) at 85° C. with gentle stirring for 5 min. Absorbance of each sample was measured at 577 nm using NanoDrop spectrophotometer (Fisher).
Ten μg of proteins were dried in a Speed-Vac and resuspended in 10 μL of 9 M urea/PBS with pH adjusted to ˜8.5. AcGG-NHS stock solution was prepared by dissolving AcGG-NHS in 50% ACN/50% H2O mixture at a concentration of 100 mg/mL. One μL of AcGG-NHS stock solution was added to each sample and the mixture was vortexed for 45 min. The labeling was repeated for another two times. The reaction was quenched with 5% hydroxylamine (pH=6.0, 1.5 M) for 15 min. Each sample was diluted 6× with PBS and proteins were digested with trypsin for overnight at 37° C. […]

Test [2] deals with ubiquitination sites in histone-enriched fractions of 293T cells. Description: IBAQ-Ub site-specific stoichiometric analysis of known Ub sites on acid-extracted histones from 293T cells treated with DMSO or MG132. The format is cell-based, human. How it is done:
293T cells were treated with 5 μM MG132 or the equal volume of DMSO for 12 hours. Histone extraction was performed as described previously (D. Shechter, et al., Nat Protoc 2007, 2, 1445-1457). Briefly, the cells were harvested by trypsin digestion. The cell pellets were washed with cold PBS and then lysed in 0.5 mL Extraction Buffer (PBS+0.5% Triton X-100 (v/v)) with protease inhibitor cocktail. After centrifuge, the supernatant was discarded and the pellet was washed with Extraction Buffer again to remove residual supernatant solution in pellet. The pellet was re-suspended in 0.4 ml 0.4 N H2SO4 for acid extraction. After overnight incubation at 4° C., the supernatant was extracted and proteins were precipitated with a final concentration of 20% TCA (v/v), followed by cold acetone wash. The protein pellet was air dried and protein concentration was measured by the Bradford assay after solubilizing the pellet with water.
Ten μg of proteins were dried in a Speed-Vac and resuspended in 10 μL of 9 M urea/PBS with pH adjusted to ˜8.5. AcGG-NHS stock solution was prepared by dissolving AcGG-NHS in 50% ACN/50% H2O mixture at a concentration of 100 mg/mL. One μL of AcGG-NHS stock solution was added to each sample and the mixture was vortexed for 45 min. The labeling was repeated for another two times. The reaction was quenched with 5% hydroxylamine (pH=6.0, 1.5 M) for 15 min. Each sample was diluted 6× with PBS and proteins were digested with trypsin for overnight at 37° C. (enzyme-to-substrate ratio of 1:100 (w/w)). When a second digestion was needed, another protease (Glu-C or Asp-N) was added (enzyme to substrate ratio of 1:100 w/w) for overnight digestion at 37° C. Following digestion, peptides were desalted and then resuspended in 10 μL of 9M urea/PBS at a pH ˜8.5. Heavy Ac—NHS stock solution was prepared by dissolving heavy Ac—NHS in ACN at a concentration of 100 mg/mL. One μL of heavy Ac—NHS stock solution was added to each sample for 45-min labeling. The labeling was repeated for two more times and the reaction was quenched with 5% hydroxylamine (pH=6.0, 1.5 M) for 15 min. The peptides were desalted with stage tips (C18) prior to LCMS analysis (J. Rappsilber, et al., Nat Protoc 2007, 2, 1896-1906).
Mass spectrometry data were collected using an Orbitrap Fusion mass spectrometer (Thermo Scientific) with a Top-12 method. Samples were resolubilized in HPLC buffer A (0.1% formic acid in water, v/v) and injected onto a self-packed reversed-phase capillary HPLC column (15 cm×100 μm, ReproSil-Pur Basic C18, 2.5 μm, Dr. Maisch GmbH). Peptides were separated by a Proxeon Easy nLC 1000 Nano-UPLC system (Thermo Scientific) at a flow rate of 200 nL/min with a 56 min gradient of 7-32% HPLC buffer B (0.1% formic acid in acetonitrile, v/v). The Orbitrap Fusion mass spectrometer (Thermo Scientific) was operated in a positive polarity mode with ion transfer tube temp of 275° C. Precursor ions were acquired in Orbitrap with a resolution 60,000 at 200 m/z and a mass range of 380-1800 m/z. Dynamic exclusion was enabled with an exclusion duration of 15 s and a mass tolerance of ±25 ppm. Fragment ions were acquired in the linear ion trap with an isolation window of 1.6 m/z and high energy collisional dissociation (HCD) of 35%.
Mass spectra were processed with MaxQuant software (version 1.5.3.12) (J. Cox, M. Mann, Nat Biotechnol 2008, 26, 1367-1372). […]

[3] abbreviates: sites quantified in both DMSO and MG132 treated samples, histone-enriched chromatin fractions of 293T cells.

Residues, ends and D or L forms follow the SMILES beside them. *: point of attachment. Cbz = O=C(OCc1ccccc1)*

T1 sequence (P02769 25-607): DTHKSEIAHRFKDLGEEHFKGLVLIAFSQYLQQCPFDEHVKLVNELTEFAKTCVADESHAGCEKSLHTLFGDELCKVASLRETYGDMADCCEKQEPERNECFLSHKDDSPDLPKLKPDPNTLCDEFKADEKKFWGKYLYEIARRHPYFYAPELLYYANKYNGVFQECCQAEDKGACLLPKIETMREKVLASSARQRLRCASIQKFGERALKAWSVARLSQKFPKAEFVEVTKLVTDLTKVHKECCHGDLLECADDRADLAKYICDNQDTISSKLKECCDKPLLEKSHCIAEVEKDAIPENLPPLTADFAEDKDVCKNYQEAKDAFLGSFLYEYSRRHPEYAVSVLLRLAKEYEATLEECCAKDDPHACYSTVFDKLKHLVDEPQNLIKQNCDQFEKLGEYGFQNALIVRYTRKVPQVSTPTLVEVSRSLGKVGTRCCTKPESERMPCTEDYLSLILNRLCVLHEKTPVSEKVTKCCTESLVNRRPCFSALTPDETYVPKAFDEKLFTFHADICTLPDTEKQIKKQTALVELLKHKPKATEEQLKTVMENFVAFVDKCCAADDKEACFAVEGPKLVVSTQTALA

For the molecule `CC(=O)NCC(=O)NCC(=O)ON1C(=O)CCC1=O` [AcGG-NHS, Acetyl glycylglycine-N-hydroxysuccinamide] (HELM PEPTIDE1{[ac].G.G.[O=C1CCC(=O)N1O[*:1]]}$$$$V2.0), the “Ninhydrin reactivity on BSA after labeling” value in test [1] (BSA after AcGG-NHS labeling, FIG. 9B-9C) is on record as “complete loss of Ninhydrin reactivity”. For the same molecule, the “reactivity to derivatize amino groups” value in test [1] (Ninhydrin test, BSA standard, absorbance at 577 nm) was “high reactivity”.

In the case of `CC(C)C[C@@H](C=O)NC(=O)[C@H](CC(C)C)NC(=O)[C@H](CC(C)C)NC(=O)OCc1ccccc1` [MG132] (Cbz-Leu-Leu-Leu-aldehyde), the “abundance of histone H2B K117/K120 ubiquitination (Ub stoichiometry)” value in test [2] (293T cells, 5 μM MG132 12 hours, acid-extracted histones, stoichiometry 0.91% without MG132) was “below the detection limit”. In addition, in test [2] (293T cells, 5 μM MG132 12 hours, DMSO control 0.85%), the “K48 polyubiquitin linkage stoichiometry on extracted histones” value turned out to be 2.93%. For the same molecule, the “increase of K48 ubiquitination stoichiometry versus DMSO control” value in test [2] (293T cells, MG132 treatment, extracted histones) was “more than tripled”. Also, in test [2] (setting [3]), the “sites with decreased ubiquitination upon treatment” value is reported as 27 % of the sites and the “sites with increased Ub abundance upon treatment” value is reported as 72 % of the sites.
